The target in one test is GSK 3α (Homo sapiens (Human), UniProt P49840). Description: GSK 3α enzyme inhibition (Z-LYTE FRET). The class given is biochemical. Particulars: read-out: IC50 Values for Enzyme Inhibition GSK3α. As to the method:
(§1) The enzyme inhibitory activities of compounds disclosed herein are determined by FRET using synthetic peptides labelled with both donor and acceptor fluorophores (Z-LYTE, Invitrogen Ltd., Paisley, UK).
The following two assay variants can be used for determination of GSK 3α inhibition.
The inhibitory activities of compounds of the invention against the GSK 3α enzyme isoform (Invitrogen), are evaluated by determining the level of activation/phosphorylation of the target peptide. The GSK3-α protein (500 ng/mL, 2.5 μL) is mixed with the test compound (2.5 μL at either 4 μg/mL, 0.4 μg/mL, 0.04 μg/mL, or 0.004 μg/mL) for 2 hr at RT. The FRET peptide (8 μM, 2.5 μL), which is a phosphorylation target for GSK3α, and ATP (40 μM, 2.5 μL) are then added to the enzyme/compound mixture and the resulting mixture incubated for 1 hr. Development reagent (protease, 5 μL) is added for 1 hr prior to detection in a fluorescence microplate reader (Varioskan® Flash, ThermoFisher Scientific).
(§2) In all cases, the site-specific protease cleaves non-phosphorylated peptide only and eliminates the FRET signal. Phosphorylation levels of each reaction are calculated using the ratio of coumarin emission (donor) over fluorescein emission (acceptor), for which high ratios indicate high phosphorylation and low ratios indicate low phosphorylation levels. The percentage inhibition of each reaction is calculated relative to non-inhibited control and the 50% inhibitory concentration (IC50 value) is then calculated from the concentration-response curve.
This method follows the same steps as Method 1 above, but utilises a shorter period of mixing of the test compound (105 minutes instead of 2 hours) with the GSK3-α protein.

For test [1], the system named is PBMCs. Description: LPS-induced TNFα/IL-8 release in PBMC cells. The class given is cell-based. As to conditions: Homo sapiens, LPS-stimulated PBMCs, IL-8, read-out: IC50 Values for Inhibition of Cytokine Release PBMCs IL-8. The procedure:
Peripheral blood mononuclear cells (PBMCs) from healthy subjects are separated from whole blood using a density gradient (Lymphoprep, Axis-Shield Healthcare). The PBMCs are seeded in 96 well plates and treated with compounds at the desired concentration for 2 hours before addition of 1 ng/mL LPS (Escherichia Coli 0111:B4 from Sigma Aldrich) for 24 hours under normal tissue culture conditions (37° C., 5% CO2). The supernatant is harvested for determination of IL-8 and TNFα concentrations by sandwich ELISA (Duo-set, R&D systems) and read on the fluorescence microplate reader (Varioskan® Flash, ThermoFisher Scientific). The concentration at 50% inhibition (IC50) of IL-8 and TNFα production is calculated from the dose response curve.

Test [2] addresses p38 MAPKα isoform (MAPK14) (Homo sapiens (Human), UniProt Q16539). Description: p38 MAPKα enzyme inhibition (Z-LYTE FRET). Type of test: biochemical. As to the method: as §1
The following two assay variants can be used for determination of p38 MAPKα inhibition.
The inhibitory activities of test compounds against the p38 MAPKα isoform (MAPK14: Invitrogen), are evaluated indirectly by determining the level of activation/phosphorylation of the down-stream molecule, MAPKAP-K2. The p38 MAPKα protein (80 ng/mL, 2.5 μL) is mixed with the test compound (2.5 μL of either 4 μg/mL, 0.4 μg/mL, 0.04 μg/mL or 0.004 μg/mL) for 2 hr at RT. […] The mixture is incubated for 1 hr at RT. Development reagent (protease, 5 μL) is added for 1 hr prior to detection in a fluorescence microplate reader (Varioskan® Flash, ThermoFisher Scientific).
This method follows the same steps as Method 1 above, but utilises a higher concentration of the p38 MAPKα protein (2.5 μL of 200 ng/mL protein instead of 2.5 μL of 80 ng/mL protein) for mixing with the test compound.
as §2

A further test deals with c-Src (Homo sapiens (Human), UniProt P12931). Description: c-Src enzyme inhibition (Z-LYTE FRET). The class given is biochemical. As to the method: as §1
Sequence of c-Src (P12931 whole entry, looked up): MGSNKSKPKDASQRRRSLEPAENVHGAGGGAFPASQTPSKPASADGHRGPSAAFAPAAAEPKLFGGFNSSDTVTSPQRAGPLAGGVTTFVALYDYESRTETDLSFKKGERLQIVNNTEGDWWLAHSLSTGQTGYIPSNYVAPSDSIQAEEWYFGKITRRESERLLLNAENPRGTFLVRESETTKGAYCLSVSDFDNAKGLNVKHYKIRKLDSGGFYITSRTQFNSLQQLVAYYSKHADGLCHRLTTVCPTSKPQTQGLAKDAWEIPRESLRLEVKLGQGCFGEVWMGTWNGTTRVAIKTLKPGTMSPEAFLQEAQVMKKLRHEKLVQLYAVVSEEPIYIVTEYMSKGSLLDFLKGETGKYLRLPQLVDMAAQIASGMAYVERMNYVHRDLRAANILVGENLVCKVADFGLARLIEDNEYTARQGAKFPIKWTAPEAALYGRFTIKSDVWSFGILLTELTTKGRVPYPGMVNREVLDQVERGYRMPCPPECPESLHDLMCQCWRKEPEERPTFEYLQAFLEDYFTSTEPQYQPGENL
(§3) The inhibitory activities of compounds of the invention against c-Src and Syk enzymes (Invitrogen), are evaluated in a similar fashion to that described hereinabove. The relevant enzyme (3000 ng/mL or 2000 ng/mL respectively, 2.5 μL) is incubated with the test compound (either 4 μg/mL, 0.4 μg/mL, 0.04 μg/mL, or 0.004 μg/mL, 2.5 μL each) for 2 hr at RT. The FRET peptides (8 μM, 2.5 μL), and appropriate ATP solutions (2.5 μL, 800 μM for c-Src, and 60 μM ATP for Syk) are then added to the enzymes/compound mixtures and incubated for 1 hr. Development reagent (protease, 5 μL) is added for 1 hr prior to detection in a fluorescence microplate reader (Varioskan® Flash, ThermoFisher Scientific).
as §2

Another test concerns the target Syk (Homo sapiens (Human), UniProt P43405). Description: Syk enzyme inhibition (Z-LYTE FRET). The class given is biochemical. As to the method:
as §1, §3, §2

For test [3], the system named is PBMCs. Description: IL-2 and IFN gamma release in CD3/CD28 stimulated PBMC cells. Type of test: cell-based. As to conditions: Homo sapiens, IL-2, read-out: IC50 Values for Inhibition of Cytokine Release PBMCs IL-2. As to the method: PBMCs from healthy subjects are separated from whole blood using a density gradient (Lymphoprep, Axis-Shield Healthcare). Cells are added to a 96 well plate pre-coated with a mixture of CD3/CD38 monoclonal antibodies (0.3 μg/mL eBioscience and 3 μg/mL BD Pharmingen respectively). Compound at the desired concentration is then added to the wells and the plate left for 3 days under normal tissue culture conditions. Supernatants are harvested and IL-2 and IFN gamma release determined by Sandwich ELISA (Duo-set, R&D System). The IC50 is determined from the dose response curve.

For the next test, the system named is HT29 cells. In words: IL-1β-induced IL-8 release in HT29 cells. Type of test: cell-based. As to conditions: Homo sapiens, HT-29, IL-1β-stimulated HT29 cells, read-out: IC50 Values for Inhibition of Cytokine Release HT29 cells IL-8. As to the method:
HT29 cells, a human colon adenocarcinoma cell line, are plated in a 96 well plate (24 hrs) and pre-treated with compounds at the desired concentration for 2 hours before addition of 5 ng/mL of IL-1β (Abcam) for 24 hours. Supernatants are harvested for IL-8 quantification by Sandwich ELISA (Duo-set, R&D System). The IC50 is determined from the dose response curve.

SMILES strings stand for the structures. pIC50: −log10 of the molar value. A value given as a limit tells only on which side of the number the result lay.

Sequence of p38 MAPKα isoform (MAPK14) (Q16539 whole entry, canonical isoform): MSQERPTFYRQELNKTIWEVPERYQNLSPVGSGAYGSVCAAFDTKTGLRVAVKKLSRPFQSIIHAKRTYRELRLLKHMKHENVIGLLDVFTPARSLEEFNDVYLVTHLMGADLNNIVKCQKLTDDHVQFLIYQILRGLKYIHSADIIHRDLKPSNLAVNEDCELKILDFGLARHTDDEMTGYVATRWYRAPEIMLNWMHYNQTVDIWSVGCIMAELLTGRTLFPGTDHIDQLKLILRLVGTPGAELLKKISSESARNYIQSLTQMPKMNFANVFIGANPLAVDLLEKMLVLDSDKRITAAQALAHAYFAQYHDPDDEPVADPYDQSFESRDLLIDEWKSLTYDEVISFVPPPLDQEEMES
Sequence of GSK 3α (P49840 whole entry): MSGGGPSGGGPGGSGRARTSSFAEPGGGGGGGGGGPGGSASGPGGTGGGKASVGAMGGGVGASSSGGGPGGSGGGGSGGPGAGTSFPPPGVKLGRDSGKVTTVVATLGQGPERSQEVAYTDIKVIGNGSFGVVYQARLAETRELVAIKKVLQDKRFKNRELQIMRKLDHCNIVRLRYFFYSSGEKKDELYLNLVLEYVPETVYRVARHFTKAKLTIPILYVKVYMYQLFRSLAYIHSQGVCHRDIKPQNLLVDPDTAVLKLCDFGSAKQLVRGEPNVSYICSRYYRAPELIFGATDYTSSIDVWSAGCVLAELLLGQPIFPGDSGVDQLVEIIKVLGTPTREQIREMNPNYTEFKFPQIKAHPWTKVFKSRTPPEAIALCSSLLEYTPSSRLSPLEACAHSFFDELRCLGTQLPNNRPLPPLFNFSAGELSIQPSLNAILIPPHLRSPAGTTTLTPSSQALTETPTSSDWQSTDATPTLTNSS

Turning to `CC[Si](CC)(CC)c1cc(NC(=O)Nc2ccc(Oc3ccnc(Nc4ccccc4)n3)c3ccccc23)n(-c2ccc(C)cc2)n1` [Example 4, 1-(4-((2-(phenylamino)pyrimidin-4-yl)oxy)naphthalen-1-yl)-3-(1-(p-tolyl)-3-(triethylsilyl)-1H-pyrazol-5-yl)urea], the pIC50 (commonly −log10 of the IC50, conventionally taken in molar units) on GSK 3α is < 5.00; with PBMCs [1], 7.02.

Take `Cc1ccc(-n2nc([Si](C)(C)C(C)(C)C)cc2NC(=O)Nc2ccc(Oc3ccnc(Nc4ccccc4)n3)c3ccccc23)cc1` [Example 5, 1-(3-(tert-Butyldimethylsilyl)-1-(p-tolyl)-1H-pyrazol-5-yl)-3-(4-((2-(phenylamino)pyrimidin-4-yl)oxy)naphthalen-1-yl)urea]: the pIC50 on GSK 3α is 5.30; with PBMCs [1] it was 6.95.

In the case of `Cc1ccc(-n2nc([Si](C)(C)C)cc2NC(=O)Nc2ccc(Oc3ccnc(Nc4ccc5onc(N)c5c4)n3)c3ccccc23)cc1` [Example 8, 1-(4-((2-((3-Aminobenzo[d]isoxazol-5-yl)amino)pyrimidin-4-yl)oxy)naphthalen-1-yl)-3-(1-(p-tolyl)-3-(trimethylsilyl)-1H-pyrazol-5-yl)urea], the pIC50 in test [2] is < 6.00; on GSK 3α, 5.67; against c-Src, 7.43; at Syk, 6.57; in the test on PBMCs [1], 8.41.

With `Cc1ccc(-n2nc([Si](C)(C)C)cc2NC(=O)Nc2ccc(Oc3ccnc(Nc4cccc(OCCN(C)C)c4)n3)c3ccccc23)cc1` [Example 11, 1-(4-((2-((3-(2-(Dimethylamino)ethoxy)phenyl)amino)pyrimidin-4-yl)oxy)naphthalen-1-yl)-3-(1-(p-tolyl)-3-(trimethylsilyl)-1H-pyrazol-5-yl)urea], the pIC50 on GSK 3α was 6.16; in the test on PBMCs [1], 8.85.

With `COc1cc(Nc2nccc(Oc3ccc(NC(=O)Nc4cc([Si](C)(C)C)nn4-c4ccc(C)cc4)c4ccccc34)n2)cc(C(=O)NCCN2CCOCC2)c1` [Example 12, 3-Methoxy-N-(2-morpholinoethyl)-5-((4-((4-(3-(1-(p-tolyl)-3-(trimethylsilyl)-1H-pyrazol-5-yl)ureido)naphthalen-1-yl)oxy)pyrimidin-2-yl)amino)benzamide], the pIC50 in test [2] was 6.85; on GSK 3α, 5.72; at c-Src, 8.00; on Syk, 7.77; in the test with PBMCs [1], 9.05; in the test on PBMCs [3], 7.55.

As for `Cc1ccc(-n2nc([Si](C)(C)C)cc2NC(=O)Nc2ccc(Oc3ccnc(Nc4ccccn4)n3)c3ccccc23)cc1` [Example 14, 1-(4-((2-(pyridin-2-ylamino)pyrimidin-4-yl)oxy)naphthalen-1-yl)-3-(1-(p-tolyl)-3-(trimethylsilyl)-1H-pyrazol-5-yl)urea], the pIC50 on GSK 3α was < 5.00; against c-Src, 6.44; against Syk it was < 6.00; with PBMCs [1] it was 7.44.

Turning to `Cc1cc(Nc2nccc(Oc3ccc(NC(=O)Nc4cc([Si](C)(C)C)nn4-c4ccc(OCCN5CCOCC5)cc4)c4ccccc34)n2)cc2cn[nH]c12` [Example 15, 1-(4-((2-((7-Methyl-1H-indazol-5-yl)amino)pyrimidin-4-yl)oxy)naphthalen-1-yl)-3-(1-(4-(2-morpholinoethoxy)phenyl)-3-(trimethylsilyl)-1H-pyrazol-5-yl)urea], the pIC50 is 8.19 with HT29 cells; 6.60 in test [2]; 5.46 on GSK 3α; 7.82 on c-Src; 7.62 against Syk; 8.66 in the test with PBMCs [1]. Further, the pIC50 in the test on PBMCs [3] is 7.51.

Consider `CC[Si](C)(C)c1cc(NC(=O)Nc2ccc(Oc3ccnc(Nc4ccccc4)n3)c3ccccc23)n(-c2ccc(C)cc2)n1` [Example 16, 1-(3-(Ethyldimethylsilyl)-1-(p-tolyl)-1H-pyrazol-5-yl)-3-(4-((2-(phenylamino)pyrimidin-4-yl)oxy)naphthalen-1-yl)urea], for which the pIC50 at GSK 3α is < 5.00; at c-Src, 6.94; against Syk it was < 6.00; with PBMCs [1], 7.83.

With `Cc1ccc(-n2nc([Si](C)(C)C)cc2NC(=O)Nc2ccc(Oc3ccnc(Nc4cc(C)c5[nH]ncc5c4)n3)c(Cl)c2Cl)cc1` [Example 17, 1-(2,3-Dichloro-4-((2-((7-methyl-1H-indazol-5-yl)amino)pyrimidin-4-yl)oxy)phenyl)-3-(1-(p-tolyl)-3-(trimethylsilyl)-1H-pyrazol-5-yl)urea], the pIC50 at GSK 3α is < 5.00; in the test on PBMCs [1], 8.10.

For the molecule `COc1cc(Nc2nccc(Oc3ccc(NC(=O)Nc4cc([Si](C)(C)C)nn4-c4ccc(C)cc4)c(Cl)c3Cl)n2)cc(OCCN2CCOCC2)c1` [Example 18, 1-(2,3-Dichloro-4-((2-((3-methoxy-5-(2-morpholinoethoxy)phenyl)amino)pyrimidin-4-yl)oxy)phenyl)-3-(1-(p-tolyl)-3-(trimethylsilyl)-1H-pyrazol-5-yl)urea], the pIC50 in test [2] was < 6.00; at GSK 3α, < 5.00; at c-Src, 7.39; at Syk, 7.23; with PBMCs [1], 8.57.

For `COc1cc(Nc2nccc(Oc3ccc(NC(=O)Nc4cc([Si](C)(C)C)nn4-c4ccc(C)cc4)c4ccccc34)n2)cc(C(=O)NC[C@H](O)[C@@H](O)[C@H](O)[C@H](O)CO)c1` [Example 19, 3-Methoxy-N-((2S,3R,4R,5R)-2,3,4,5,6-pentahydroxyhexyl)-5-((4-((4-(3-(1-(p-tolyl)-3-(trimethylsilyl)-1H-pyrazol-5-yl)ureido)naphthalen-1-yl)oxy)pyrimidin-2-yl)amino)-benzamide], the pIC50 was 5.17 on GSK 3α and 7.12 in the test on PBMCs [1].

As for `Cc1ccc(-n2nc([Si](C)(C)C)cc2NC(=O)Nc2ccc(Oc3ccnc(Nc4ccc5c(c4)CNC5=O)n3)c3ccccc23)cc1` [Example 20, 1-(4-((2-((1-Oxoisoindolin-5-yl)amino)pyrimidin-4-yl)oxy)naphthalen-1-yl)-3-(1-(p-tolyl)-3-(trimethylsilyl)-1H-pyrazol-5-yl)urea], the pIC50 at GSK 3α was 6.46; in the test on PBMCs [1] it was 8.74.

Source of the values: patent US9783556B2, “Kinase inhibitors” (RESPIVERT LIMITED, priority 2012, dated 2017).
